Patent US9999614B2, “Combination for the prophylaxis and treatment of behavioural, mental, and cognitive disorders” (LTD “VALENTA-INTELLEKT”, priority 2012, dated 2018)

Tested on: amnesia in mice, as caused by electroconvulsive shock (ECS)
Experiment: Conditioned passive avoidance reflex (CPAR), amnesia caused by electroconvulsive shock (ECS)
Format: in vivo
Settings: for Latent time of entering into the dark chamber / Number of mice not entered into the dark chamber, % / Number of mice taught to CPAR: + ECS, i.p. once a day for 5 days, Melatonin 5 mg, Memantin 10 mg mono-use; for Number of mice taught to CPAR: count of mice, human doses converted to mice; for Effect on the amnestic action of ECS (in words): summary of Tables 1-2, p<0.05 for the compositions
Procedure: For this, the active substances Melatonin 3 mg/Memantin 10 mg, Melatonin 5 mg/Memantin 20 mg, Melatonin 10 mg/Memantin 20 mg were taken, and doses recommended for human beings were converted into doses adapted for mice according to the formula “(active substance/70(average weight of a human being))×7”. Then the compositions were dissolved in 5 mL of the solution and, according to the given formula, introduced to animals intraperitoneally once a day for 5 days.
The action of the compositions on learning and memory factors were studied on white non-linear male mice having a weight 20+/−4 g, using the conditioned passive avoidance reflex (CPAR) of electroconvulsive shock (ECS) (Ya. Buresh et al., 1991; K. M. Dyumaev et al., 1995).
Electroconvulsive shock (ECS) was used as the amnesic action, the electric current parameters were: 50 Hz, 50 mA, 0.3 s, which was applied to mice with the use of electrodes in the shape of clips fixed on auricles, transpineally, just after teaching CPAR (see, “Manual for Experimental (Pre-Clinical) Studies of New Pharmacological Substances”, 2000). Pseudo-electroconvulsive shock was caused to the animals by applying pineal electrodes for causing ECS without applying electric current. The mice were tested for maintaining CPAR in certain time intervals after ECS.
The CPAR test is the main model for evaluating substance influences on formation and replication of short-time memory in a normal condition and in an abnormal condition, i.e., induced amnesia. The CPAR is the most informative method among the methods that are used today for evaluating efficiency of substances with influence on the CNS of mammals (see, “Manual for Experimental (Pre-Clinical) Studies of New Pharmacological Substances”, 2000). The CPAR (conditioned passive avoidance reflex in a dark, light chamber) was taught to the mice on the basis of electrodermal response according to the method proposed by Cumin et al. (1982) with due regard to the recommendations given by Mondadori et al. (1990). The installation for mice, as produced by Lafayette Instrument Co., USA, was a black chamber with the electrode floor and a white plastic platform that was arranged on the floor in the center of the chamber. The mice, one by one, were put onto the plastic platform. The animals went/jumped down onto the electrode floor where they received an electric current shock, i.e., punishment. Electric current was supplied after the time when an animal stood on the floor with all its four legs. The natural response of the animals is to go back to the current-free or safe platform. After several minutes of teaching, 5 minutes on the average, mice developed CPAR and remained on the safe platform. Tests for memorizing CPAR were conducted in successive time intervals after amnesic action. In a case where an animal went/jumped down onto the platform within 1 minute, it was recorded as having retrograde amnesia of the passive avoidance skill. The compositions were studied in comparison with Melatonin 5 mg (mono-use) and Memantin 10 mg (mono-use), according to the above formula for adapting to animal models.

Row | SMILES | Latent time of entering into the dark chamber (1 day after teaching) [s] | Number of mice not entered into the dark chamber, % (1 day after teaching) [%] | Latent time of entering into the dark chamber (3 days after teaching) [s] | Number of mice not entered into the dark chamber, % (3 days after teaching) [%] | Latent time of entering into the dark chamber (7 days after teaching) [s] | Number of mice not entered into the dark chamber, % (7 days after teaching) [%] | Latent time of entering into the dark chamber (10 days after teaching) [s] | Number of mice not entered into the dark chamber, % (10 days after teaching) [%] | Number of mice taught to CPAR | Effect on the amnestic action of ECS (in words)
1 | COc1ccc2[nH]cc(CCNC(C)=O)c2c1 [Melatonin, N-acetyl-5-methoxytriptamine] | 108.3 ± 21.7 | 66.7 | 105.6 ± 17.4 | 58.3 | 103.3 ± 21.2 | 58.3 | 103.2 ± 20.6 | 33.3 | 9 | changed the amnestic action
2 | CC12CC3CC(C)(C1)CC(N)(C3)C2 [Memantin] | 104.6 ± 19.2 | 36.3 | 109.5 ± 22.1 | 54.5 | 110.1 ± 18.9 | 63.6 | 109.8 ± 21.1 | 63.6 | 8 | changed the amnestic action
